Where two headings read alike, the source gives them in different places.
Assays:
[1] = test system: MCF-7/6 mammary carcinoma cells; experiment: chick heart invasion assay; type: cell-based, human; parameters: unit not given here; details: for anti-invasive activity class act.: validation set, in vitro; for Actual in vitro activity class: compounds 37-51, Table 11; for Actual class: training set compounds 37-51, class = log cmin, lowest concentration with invasion grade I or II
From the text: “Anti-invasive” or “anti-invasive activity” is the ability to inhibit the invasiveness of tumor cells. Invasion by tumor cells is defined as the progressive occupation and destruction of their environment, and is the result of matrix degradation and directional cell motility. Anti-invasive activity of a compound is the ability to inhibit or block invasion, and can be assessed by counting the number of invading cells, by the depth of their invasion and/or by the amount of environmental destruction. Many assays in vitro can be applied to test for anti-invasive activity (for a complete list see Bracke et al. 2008). The three most popular ones are: • Chick heart invasion assay (Bracke et al., 2001, see details below). The cut-off value is between grade II (non-invasive) and grade III (invasive). […] Collagen gels, prepared on the bottom of plastic wells are covered with a test cell suspension, and incubated with liquid culture medium for 24 h. Invasion is evaluated with an inverted phase-contrast microscope, and is based on the percentage of cells showing extensions in the gel. […] Matrigel is a mixture of basement membrane components, and is applied as a semi-solid layer on top a filter with pores allowing the transgression of cells. The test cell suspension is seeded on top of the gel, and incubated for 1 day in a two-compartment chamber system. Invasion is then evaluated via the percentage of cells that are attached to the lower side of the filter.
In the chick heart invasion assay cancer cells are confronted with a fragment of normal tissue, so as not to neglect the contribution of the host tissue in the micro-ecosystem that governs tumor behavior. As such, precultured heart tissue fragments (PHFs), dissected from 9-day-old chicken embryos, may be confronted with aggregates of human invasive MCF-7/6 mammary carcinoma cells in the presence of a certain concentration of a test compound. After eight days, the interaction between the cancer cells and the PHF is evaluated histologically and classified along a 5-grades subjective scale (Bracke et al., 2001). Grades III and IV are typical for invasion, while grades 0, I and II correspond to absence of invasion. Compounds that inhibit invasion of confronting cancer cells i.e. from III/IV to 0/I/II, are determined as anti-invasive. Possible alternative assays generally known in the art are the type I collagen invasion assay, wound healing assay and the matrigel invasion assay.
“Anti-invasive” refers to the ability to inhibit invasion of the tumor or cancer cell into surrounding tissue (within or outside the organ of origin). […] This screening method confronts cancer cells with a fragment of normal tissue, so as not to neglect the contribution of the host tissue in the micro-ecosystem that governs tumor behavior. The interaction between the cancer cells and the normal tissue is evaluated histologically and classified along a 5-grades subjective scale. Grades III and IV are typical for invasion, while grades 0, I and II correspond to absence of invasion. Compounds that inhibit invasion of confronting cancer cells i.e. from III/IV to 0/I/II, are determined as anti-invasive. Possible alternative assays generally known in the art are the type I collagen invasion assay and the Matrigel invasion assay.
The potency of these molecules had been evaluated by means of the chick heart invasion assay, as described herein before.

[2] = test system: MCF-7/6 mammary carcinoma cells; parameters: unit not given here; details: training set compounds 1-34, Indo-Belgian screening program; class = log cmin, lowest concentration with invasion grade I or II; cited from earlier work

Molecule	anti-invasive activity class act. [1]	Actual in vitro activity class [1]	Actual class [1]	also measured
O=C(/C=C/c1ccoc1)c1ccc(F)cc1 [Compound 77, (2E)-3-(3-Furanyl)-1-(4-fluorophenyl)propenone]	−1 (about 0.1)	–	–	–
CC(C)=CCOc1ccc(C(=O)/C=C/c2ccc(F)cc2)cc1 [Compound 62, (2E)-3-(4-Fluorophenyl)-1-[4-(3-methylbut-2-enyloxy)phenyl]propenone]	>=2 (about 100)	–	–	–
COc1ccc(C(=O)/C=C/c2ccc(C(C)C)cc2)cc1OC [Compound 31, (2E)-3-(4-(1-methylethyl)phenyl)-1-(3′,4′-dimethoxyphenyl)propenone]	–	–	–	Actual class [2]: 3 (>100)
C=CCn1cc(C(=O)/C=C/c2ccc(Cl)cc2)c2ccccc21 [Compound 84]	≧2 (about 100)	–	–	–
CC(C)=CCn1cc(C(=O)/C=C/c2ccc(Cl)cc2)c2ccccc21 [Compound 85, (2E)-3-(4-Chlorophenyl)-1-[1-(3-methylbut-2-enyl)-1H-indol-3-yl]propenone]	≧2 (about 100)	–	–	–
COc1ccc(C(=O)/C=C/c2cc3ccccc3o2)cc1 [Compound 79]	2 (about 100)	–	–	–
COc1cc(OC)c(C(=O)/C=C/c2ccc(OC)c(OC)c2)cc1CC=C(C)C [Compound 19, (2E)-3-(3,4-dimethoxyphenyl)-1-(2′,4′-dimethoxy-5′-(3-methylbut-2-enyl)phenyl)propenone]	–	–	–	Actual class [2]: 1 (about 10)
CC1(C)CCc2c(O)c(C(=O)/C=C/c3ccc(Oc4ccccc4)cc3)c3c(c2O1)CCC(C)(C)O3 [Compound 6, (2E)-1-(5-Hydroxy-2,2,8,8-tetramethyl-3,4,9,10-tetrahydro-2H,8H-pyrano[2,3-f]chromen-6-yl)-3-(4-phenoxypheny)propenone]	–	–	–	Actual class [2]: 3 (>100)
COc1cc(OC)c(C(=O)/C=C/c2ccccc2)c(OC)c1CC=C(C)C [Compound 15, (2E)-3-phenyl-1-(2′,4′,6′-trimethoxy-3′-(3-methylbut-2-enyl)phenyl)propenone]	–	–	–	Actual class [2]: 3 (>100)
COc1cc(C(=O)/C=C/c2ccco2)cc(OC)c1OC [Compound 75, (2E)-3-(2-Furanyl)-1-(3,4,5-trimethoxyphenyl)propenone]	−1 (about 0.1)	–	–	–
O=C(/C=C/c1ccco1)c1ccc(F)cc1 [Compound 73, (2E)-3-(2-Furanyl)-1-(4-fluorophenyl)propenone]	2 (about 100)	–	–	–
COc1ccc(C(=O)/C=C/c2cccc(OC)c2)cc1 [Compound 41, (2E)-3-(3-Methoxyphenyl)-1-(4-methoxyphenyl)propenone]	–	0 (about 1)	0 (about 1)	–
COc1cc(OC)c(OC)cc1/C=C/C(=O)c1c(OC)cccc1OC [Compound 46, (2E)-3-(2,4,5-Trimethoxyphenyl)-1-(2,6-dimethoxyphenyl)propenone]	–	1 (about 10)	1 (about 10)	–
COc1cc(OC)c(C(=O)/C=C/c2cc(OC)c(OC)cc2OC)c(OC)c1 [Compound 42, (2E)-3-(2,4,5-Trimethoxyphenyl)-1-(2,4,6-trimethoxyphenyl)propenone]	–	1 (about 10)	1 (about 10)	–
COc1ccc(C(=O)C=Cc2ccco2)cc1 [Compound 74, 3-Furan-2-yl-1-(4-methoxyphenyl)propenone]	2 (about 100)	–	–	–
COc1ccc(/C=C/C(=O)c2ccccc2)cc1 [Compound 39, (2E)-3-(4-Methoxyphenyl)-1-phenylpropenone]	–	1 (about 10)	1 (about 10)	–
O=C(/C=C/c1ccc(F)cc1)c1ccc(O)cc1 [Compound 58, (2E)-3-(4-Fluorophenyl)-1-(4-hydroxyphenyl)propenone]	1 (about 10)	–	–	–
COc1ccc(C(=O)/C=C/c2cc(OC)c(OC)cc2OC)cc1 [Compound 44, (2E)-3-(2,4,5-Trimethoxyphenyl)-1-(4-methoxyphenyl)propenone]	–	0 (about 1)	0 (about 1)	–

Molecule	anti-invasive activity class act. [1]	Actual in vitro activity class [1]	Actual class [1]	also measured
O=C(C=Cc1ccc(F)cc1)c1ccco1 [Compound 68, 1-(2-Furyl)-3-(4-fluorophenyl)propenone]	1 (about 10)	–	–	–
COc1ccc(C(=O)/C=C/c2ccccc2F)cc1 [Compound 55, (2E)-3-(2-Fluorophenyl)-1-(4-methoxyphenyl)propenone]	1 (about 10)	–	–	–
COc1ccc(/C=C/C(=O)c2ccc(OC)cc2)cc1 [Compound 40, (2E)-3-(4-Methoxyphenyl)-1-(4-methoxyphenyl)propenone]	–	1 (about 10)	1 (about 10)	–
COc1ccc(C(=O)/C=C/c2c(OC)cc(OC)cc2OC)cc1 [Compound 45, (2E)-1-(4-methoxyphenyl)-3-(2,4,6-trimethoxyphenyl)prop-2-en-1-one]	–	−1 (about 0.1)	−1 (about 0.1)	–
O=C(C=Cc1ccco1)c1ccco1 [Compound 70, 1,3-Difuran-2-yl-propenone]	−1 (about 0.1)	–	–	–
O=C(/C=C/c1cc2ccccc2o1)c1ccc(F)cc1 [Compound 78, (2E)-3-(2-Benzofuranyl)-1-(4-fluorphenyl)propenone]	2 (about 100)	–	–	–
O=C(/C=C/c1cccc(F)c1)c1ccc(F)cc1 [Compound 53, (2E)-3-(3-Fluorophenyl)-1-(4-fluorophenyl)propenone]	−1 (about 0.1)	–	–	–
COc1ccc(C(=O)/C=C/c2ccccc2)cc1 [Compound 38, (2E)-3-phenyl-1-(4-methoxyphenyl)propenone]	–	1 (about 10)	1 (about 10)	–
COc1cccc(OC)c1C(=O)/C=C/c1ccco1 [Compound 76, (2E)-3-(2-Furanyl)-1-(2,6-dimethoxyphenyl)propenone]	−1 (about 0.1)	–	–	–
COc1ccc(C(=O)/C=C/c2ccc(F)cc2)cc1 [Compound 48, (2E)-3-(4-Fluorophenyl)-1-(4-methoxyphenyl)propenone]	–	0 (about 1)	0 (about 1)	–
O=C(/C=C/c1ccco1)c1ccccc1 [Compound 72, (2E)-3-Furan-2-yl-1-phenylpropenone]	>=2 (about 100)	–	–	–
CC1(C)CCc2c(O)c(C(=O)/C=C/c3cccc([N+](=O)[O-])c3)c3c(c2O1)CCC(C)(C)O3 [Compound 88, (2E)-1-(5-Hydroxy-2,2,8,8-tetramethyl-3,4,9,10-tetrahydro-2H,8H-pyrano[2,3-f]chromen-6-yl)-3-(3-nitro-phenyl)propenone]	≧3 (>100)	–	–	–
COc1ccc(C(=O)/C=C/c2cccc(F)c2)cc1 [Compound 54, (2E)-3-(3-Fluorophenyl)-1-(4-methoxyphenyl)propenone]	1 (about 10)	–	–	–
COc1ccc(C(=O)/C=C/c2ccc(Cl)cc2)cc1 [Compound 52, (2E)-3-(4-chlorophenyl)-1-(4-methoxyphenyl)prop-2-en-1-one]	−2 (about 0.01)	–	–	–
COc1cc(O)c(C(=O)/C=C/c2cccc([N+](=O)[O-])c2)cc1C(c1ccccc1)c1ccccc1 [Compound 89, (2E)-1-(5-Benzhydryl-2-hydroxy-4-methoxy-phenyl)-3-(3-nitro-phenyl)-propenone]	≧3 (>100)	–	–	–
(2E)-1,3-diphenylpropenone [Compound 37]	–	1 (about 10)	1 (about 10)	–
COc1cc(OC)c(/C=C/C(=O)c2c(OC)cccc2OC)c(OC)c1 [Compound 47, (2E)-3-(2,4,6-Trimethoxyphenyl)-1-(2,6-dimethoxyphenyl)propenone]	–	0 (about 1)	0 (about 1)	–
O=C(/C=C/c1ccc(F)cc1)c1ccc(F)cc1 [Compound 50, (2E)-3-(4-Fluorophenyl)-1-(4-fluorophenyl)propenone]	–	1 (about 10)	1 (about 10)	–

Source: patent US9290427B2, “Anti-invasive compounds” (Universiteit Gent, priority 2012, dated 2016)
